Experiment: xn = mol fraction of the nth substance listed
Details: Liquid, Pulse-echo method

CCCCCCC [heptane] + CCCO
Details	speed of sound [m/s]
298.17 K, 30400 kPa, x2 = 0.3008	1319.3
298.17 K, 45590 kPa, x2 = 0.3008	1394.1
298.17 K, 60790 kPa, x2 = 0.3008	1461.5
298.17 K, 60790 kPa, x2 = 0.7986	1471.8
298.17 K, 75990 kPa, x2 = 0.1008	1526.8
298.17 K, 75990 kPa, x2 = 0.3008	1523.2
298.17 K, 75990 kPa, x2 = 0.7986	1529.5
298.17 K, 91190 kPa, x2 = 0.1008	1584.5
298.17 K, 91190 kPa, x2 = 0.7016	1580.7
298.17 K, 111450 kPa, x2 = 0.7016	1647.6
298.18 K, 100 kPa, x2 = 0.3008	1128.6
298.18 K, 100 kPa, x2 = 0.6027	1144.3
298.18 K, 45590 kPa, x2 = 0	1400.1
298.18 K, 60790 kPa, x2 = 0.1008	1464.2
298.18 K, 60790 kPa, x2 = 0.7016	1467.2
298.18 K, 75990 kPa, x2 = 0.7016	1526
298.18 K, 101320 kPa, x2 = 0.7016	1614.9
298.18 K, 111450 kPa, x2 = 0.1008	1655.1
298.18 K, 121580 kPa, x2 = 0.7016	1678.9
298.19 K, 30400 kPa, x2 = 0.6027	1326.4
298.19 K, 45590 kPa, x2 = 0.6027	1398.6
298.19 K, 45590 kPa, x2 = 0.7016	1403
298.19 K, 60790 kPa, x2 = 0	1468.7
298.19 K, 91190 kPa, x2 = 0.3008	1580.1
298.19 K, 91190 kPa, x2 = 0.6027	1579
298.2 K, 100 kPa, x2 = 0.7016	1154
298.2 K, 30400 kPa, x2 = 0.7016	1332.1
298.2 K, 121580 kPa, x2 = 0.7986	1679.9
298.22 K, 75990 kPa, x2 = 0.6027	1523.5
298.23 K, 60790 kPa, x2 = 0.6027	1463.6
298.25 K, 101320 kPa, x2 = 0.7986	1616.7
298.26 K, 91190 kPa, x2 = 0.7986	1583
303.06 K, 100 kPa, x2 = 0	1108.9
303.07 K, 45590 kPa, x2 = 0	1384.4
303.08 K, 60790 kPa, x2 = 0.6027	1449.5
303.08 K, 101320 kPa, x2 = 0.6027	1601.2
303.09 K, 101320 kPa, x2 = 0.7986	1604.9
303.1 K, 75990 kPa, x2 = 0.7986	1516.7
303.1 K, 91190 kPa, x2 = 0.7986	1570.9
303.1 K, 101320 kPa, x2 = 0	1612.6
303.1 K, 111450 kPa, x2 = 0.6027	1634.7
303.1 K, 121580 kPa, x2 = 0	1681.2
303.11 K, 111450 kPa, x2 = 0.4992	1635.3
303.11 K, 121580 kPa, x2 = 0.4992	1667.7
303.11 K, 121580 kPa, x2 = 0.7986	1668.6
303.12 K, 100 kPa, x2 = 0.7986	1147.6
303.12 K, 30400 kPa, x2 = 0.7986	1324.1
303.12 K, 45590 kPa, x2 = 0.7016	1388.2
303.12 K, 45590 kPa, x2 = 0.7986	1394.5
303.12 K, 101320 kPa, x2 = 0.4992	1601.3
303.12 K, 111450 kPa, x2 = 0.7986	1637.5
303.12 K, 121580 kPa, x2 = 0.7016	1667.3
303.13 K, 30400 kPa, x2 = 0	1307
303.13 K, 30400 kPa, x2 = 0.7016	1316.2
303.13 K, 60790 kPa, x2 = 0.7986	1458.1
303.13 K, 75990 kPa, x2 = 0.7016	1512.7
303.13 K, 91190 kPa, x2 = 0.4992	1565.8
303.13 K, 91190 kPa, x2 = 0.7016	1567.8
303.13 K, 101320 kPa, x2 = 0.7016	1602.5
303.13 K, 111450 kPa, x2 = 0.7016	1635.6
303.14 K, 100 kPa, x2 = 0.7016	1134.5
303.14 K, 30400 kPa, x2 = 0.4992	1306.5
303.14 K, 30400 kPa, x2 = 0.6027	1310
303.14 K, 60790 kPa, x2 = 0.7016	1453.1
303.14 K, 75990 kPa, x2 = 0.4992	1509.2
303.14 K, 91190 kPa, x2 = 0.6027	1565.9
303.15 K, 100 kPa, x2 = 0.6027	1124
303.15 K, 45590 kPa, x2 = 0.6027	1383.2
303.15 K, 60790 kPa, x2 = 0.4992	1448
303.15 K, 75990 kPa, x2 = 0.6027	1509.9
303.15 K, 111450 kPa, x2 = 0	1647.6
303.16 K, 100 kPa, x2 = 0.4992	1116
303.16 K, 15200 kPa, x2 = 0.1008	1213.6
303.16 K, 45590 kPa, x2 = 0.4992	1380.9
303.16 K, 121580 kPa, x2 = 0.3008	1669.9
303.17 K, 15200 kPa, x2 = 0	1218.6
303.17 K, 75990 kPa, x2 = 0	1517.2
303.17 K, 101320 kPa, x2 = 0.1008	1607.1
303.17 K, 101320 kPa, x2 = 0.3008	1602.4
303.18 K, 60790 kPa, x2 = 0	1453.7
303.18 K, 91190 kPa, x2 = 0	1575.7
303.18 K, 111450 kPa, x2 = 0.1008	1642
303.18 K, 121580 kPa, x2 = 0.6027	1666.6
303.19 K, 121580 kPa, x2 = 0.1008	1675.4
303.2 K, 100 kPa, x2 = 0.3008	1107.1
303.2 K, 30400 kPa, x2 = 0.3008	1301.8
303.2 K, 60790 kPa, x2 = 0.1008	1448.8
303.21 K, 30400 kPa, x2 = 0.1008	1301.9
303.21 K, 45590 kPa, x2 = 0.1008	1379.3
303.21 K, 60790 kPa, x2 = 0.3008	1446
303.21 K, 75990 kPa, x2 = 0.1008	1512.1
303.21 K, 75990 kPa, x2 = 0.3008	1508.5
303.21 K, 91190 kPa, x2 = 0.1008	1570.5
303.21 K, 91190 kPa, x2 = 0.3008	1566.1
303.22 K, 100 kPa, x2 = 0.1008	1103.8
303.23 K, 45590 kPa, x2 = 0.3008	1377.7
303.25 K, 111450 kPa, x2 = 0.3008	1636.9

Reference: the NIST ThermoML archive (doi:10.1021/je030136n)
